In patent publication US12404241B2 (Celgene Corporation, priority 2018, dated 2025):
Counter-ions that a name gives are not always drawn.

Target: T1, AR (Homo sapiens, UniProt P10275)
T1 construct: endogenous in cells; host or cells: VCaP cells
T1 sequence (P10275 1-920): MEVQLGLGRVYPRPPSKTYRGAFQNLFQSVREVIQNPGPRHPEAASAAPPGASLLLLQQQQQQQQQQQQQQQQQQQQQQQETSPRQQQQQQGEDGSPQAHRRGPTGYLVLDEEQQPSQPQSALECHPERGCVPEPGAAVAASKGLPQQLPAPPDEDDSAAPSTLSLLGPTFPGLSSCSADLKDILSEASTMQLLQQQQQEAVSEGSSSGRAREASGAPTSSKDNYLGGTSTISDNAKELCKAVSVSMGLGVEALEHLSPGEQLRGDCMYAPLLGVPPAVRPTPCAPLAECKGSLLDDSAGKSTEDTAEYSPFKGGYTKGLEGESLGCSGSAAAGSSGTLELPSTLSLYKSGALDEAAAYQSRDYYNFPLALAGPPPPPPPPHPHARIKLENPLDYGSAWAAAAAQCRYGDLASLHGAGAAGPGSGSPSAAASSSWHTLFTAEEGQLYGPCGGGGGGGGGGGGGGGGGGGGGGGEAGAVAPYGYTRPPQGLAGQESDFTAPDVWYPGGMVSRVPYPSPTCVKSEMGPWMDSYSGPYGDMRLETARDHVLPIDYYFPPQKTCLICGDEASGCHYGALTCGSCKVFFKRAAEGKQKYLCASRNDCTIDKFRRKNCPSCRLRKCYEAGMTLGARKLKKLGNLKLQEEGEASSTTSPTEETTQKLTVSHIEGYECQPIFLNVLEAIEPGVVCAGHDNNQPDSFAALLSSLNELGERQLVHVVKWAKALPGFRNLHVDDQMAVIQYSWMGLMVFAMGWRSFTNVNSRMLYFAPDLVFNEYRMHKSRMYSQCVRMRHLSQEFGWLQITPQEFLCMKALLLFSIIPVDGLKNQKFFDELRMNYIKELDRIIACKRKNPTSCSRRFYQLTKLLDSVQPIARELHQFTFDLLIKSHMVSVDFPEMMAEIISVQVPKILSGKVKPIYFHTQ
Assay: VCAP AR Degradation Assay
Format: cell-based
Conditions: for Y (AR degradation efficiency, % of DMSO control): class symbols *; for DC50: class symbols A-C, read-out: DC50
Method in brief: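 VCaP cells treated 24 h at 37 °C with a 10-point 1:3 series (top 5 μM final; 0.1% DMSO control). Lysate AR measured by sandwich ELISA, normalized to DMSO as percent of control; DC50, EC50 and lowest AR level (Y) from four-parameter logistic fit.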

Row | SMILES | Y (AR degradation efficiency, % of DMSO control) | DC50
1 | CC1(C)C(=O)N(c2ccc(C#N)c(C(F)(F)F)c2)C(=S)N1c1ccc(OCCN2CCN(CC(=O)Nc3cc(Cl)cc(NC4CCC(=O)NC4=O)c3)CC2)c(CC(F)F)c1 (stereo not shown) [Example 159, N-(3-chloro-5-(2,6-dioxopiperidin-3-ylamino)phenyl)-2-(4-(2-(4-(3-(4-cyano-3-(trifluoromethyl)phenyl)-5,5-dimethyl-4-oxo-2-thioxoimidazolidin-1-yl)-2-(2,2-difluoroethyl)phenoxy)ethyl)piperazin-1-yl)acetamide] | * (0<Y<=25%) | < 100 nM
2 | CCc1cc(N2C(=S)N(c3ccc(C#N)c(C(F)(F)F)c3)C(=O)C2(C)C)ccc1OCCN1CCN(CC(=O)Nc2cccc(NC3CCC(=O)NC3=O)c2)C[C@H]1C (stereo partly shown) [Example 44] | * (0<Y<=25%) | < 100 nM
3 | CC1(C)C(=O)N(c2ccc(C#N)c(C(F)(F)F)c2)C(=S)N1c1ccc(OCCN2CCN(CC(=O)Nc3cccc(NC4CCC(=O)NC4=O)c3)CC2)c(C2CCCC2)c1 (stereo not shown) [Example 39, hydrochloride] | ** (25%<Y<=35%) | 100 to 500 nM
4 | C[C@@H]1CN(CCOc2ccc(N3C(=S)N(c4ccc(C#N)c(C(F)(F)F)c4)C(=O)C3(C)C)cc2C2CC2)CCN1CC(=O)Nc1cccc(NC2CCC(=O)NC2=O)c1 (stereo partly drawn) [Example 272, 2-((R)-4-(2-(4-(3-(4-cyano-3-(trifluoromethyl)phenyl)-5,5-dimethyl-4-oxo-2-thioxoimidazolidin-1-yl)-2-cyclopropylphenoxy)ethyl)-2-methylpiperazin-1-yl)-N-(3-(2,6-dioxopiperidin-3-ylamino)phenyl)acetamide] | * (0<Y<=25%) | < 100 nM
5 | CCc1cc(N2C(=S)N(c3ccc(C#N)c(C(F)(F)F)c3)C(=O)C2(C)C)ccc1OCCN1C[C@@H](C)N(CC(=O)Nc2cc(F)cc(NC3CCC(=O)NC3=O)c2)[C@@H](C)C1 (stereo partly drawn) [Example 283, 2-((2R,6S)-4-(2-(4-(3-(4-cyano-3-(trifluoromethyl)phenyl)-5,5-dimethyl-4-oxo-2-thioxoimidazolidin-1-yl)-2-ethylphenoxy)ethyl)-2,6-dimethylpiperazin-1-yl)-N-(3-(2,6-dioxopiperidin-3-ylamino)-5-fluorophenyl)acetamide] | * (0<Y<=25%) | < 100 nM
6 | C[C@@H]1CN(CC(=O)Nc2cccc(NC3CCC(=O)NC3=O)c2)[C@H](C)CN1CCOc1ccc(N2C(=S)N(c3ccc(C#N)c(Cl)c3)C(=O)C2(C)C)cc1C1CC1 (stereo partly drawn) [Example 205, 2-((2R,5R)-4-(2-(4-(3-(3-chloro-4-cyanophenyl)-5,5-dimethyl-4-oxo-2-thioxoimidazolidin-1-yl)-2-cyclopropylphenoxy)ethyl)-2,5-dimethylpiperazin-1-yl)-N-(3-(2,6-dioxopiperidin-3-ylamino)phenyl)acetamide] | * (0<Y<=25%) | < 100 nM
7 | CCc1cc(N2C(=S)N(c3cnc(C#N)c(C(F)(F)F)c3)C(=O)C23CCC3)ccc1OCCN1CCN(CC(=O)Nc2cc(F)cc(NC3CCC(=O)NC3=O)c2)[C@H](C)C1 (stereo partly drawn) [Example 107, 2-((R)-4-(2-(4-(7-(6-cyano-5-(trifluoromethyl)pyridin-3-yl)-8-oxo-6-thioxo-5,7-diazaspiro[3.4]octan-5-yl)-2-ethylphenoxy)ethyl)-2-methylpiperazin-1-yl)-N-(3-(2,6-dioxopiperidin-3-ylamino)-5-fluorophenyl)acetamide] | * (0<Y<=25%) | < 100 nM
8 | CCc1cc(N2C(=S)N(c3ccc(C#N)c(C(F)(F)F)c3)C(=O)C2(C)C)ccc1CCCN1CCN(CC(=O)Nc2cccc(NC3CCC(=O)NC3=O)c2)[C@@H](C)C1 (stereo partly drawn) [Example 279, 2-((S)-4-(3-(4-(3-(4-cyano-3-(trifluoromethyl)phenyl)-5,5-dimethyl-4-oxo-2-thioxoimidazolidin-1-yl)-2-ethylphenyl)propyl)-2-methylpiperazin-1-yl)-N-(3-(2,6-dioxopiperidin-3-ylamino)phenyl)acetamide] | * (0<Y<=25%) | < 100 nM
9 | CC(C)c1cc(N2C(=S)N(c3ccc(C#N)c(Cl)c3)C(=O)C2(C)C)ccc1OCCN1C[C@@H](C)N(CC(=O)Nc2cc(Cl)cc(NC3CCC(=O)NC3=O)c2)[C@@H](C)C1 (stereo partly drawn) [Example 223, 2-((2S,6R)-4-(2-(4-(3-(3-chloro-4-cyanophenyl)-5,5-dimethyl-4-oxo-2-thioxoimidazolidin-1-yl)-2-isopropylphenoxy)ethyl)-2,6-dimethylpiperazin-1-yl)-N-(3-chloro-5-(2,6-dioxopiperidin-3-ylamino)phenyl)acetamide] | ** (25%<Y<=35%) | 100 to 500 nM
10 | CCc1cc(N2C(=S)N(c3ccc(C#N)c(C(F)(F)F)c3)C(=O)C2(C)C)ccc1OCCN1CCN(CC(=O)Nc2cccc(NC3CCC(=O)NC3=O)c2)C[C@@H]1CO (stereo partly shown) [Example 48] | * (0<Y<=25%) | < 100 nM
11 | CCc1cc(N2C(=S)N(c3ccc(C#N)c(C(F)(F)F)c3)C(=O)C2(C)C)ccc1OCCN1CCN(CC(=O)Nc2cccc(NC3CCC(=O)NC3=O)c2)[C@H](CO)C1 (stereo partly shown) [Example 50] | *** (35%<Y<50%) | 500 to 1000 nM
12 | CCc1cc(N2C(=S)N(c3ccc(C#N)c(Cl)c3)C(=O)C2(C)C)ccc1OCCN1CCN(CC(=O)Nc2cccc(NC3CCC(=O)NC3=O)c2)[C@H](C)C1 (stereo partly drawn) [Example 168, 2-((R)-4-(2-(4-(3-(3-chloro-4-cyanophenyl)-5,5-dimethyl-4-oxo-2-thioxoimidazolidin-1-yl)-2-ethylphenoxy)ethyl)-2-methylpiperazin-1-yl)-N-(3-(2,6-dioxopiperidin-3-ylamino)phenyl)acetamide] | * (0<Y<=25%) | < 100 nM
13 | CCc1cc(N2C(=S)N(c3cnc(C#N)c(C(F)(F)F)c3)C(=O)C2(C)C)ccc1OCCN1CCN(CC(=O)Nc2cc(NC3CCC(=O)NC3=O)ccc2F)[C@H](C)C1 (stereo partly drawn) [Example 76, 2-((R)-4-(2-(4-(3-(6-cyano-5-(trifluoromethyl)pyridin-3-yl)-5,5-dimethyl-4-oxo-2-thioxoimidazolidin-1-yl)-2-ethylphenoxy)ethyl)-2-methylpiperazin-1-yl)-N-(5-(2,6-dioxopiperidin-3-ylamino)-2-fluorophenyl)acetamide] | * (0<Y<=25%) | < 100 nM
14 | CCc1cc(N2C(=S)N(c3ccc(C#N)c(C(F)(F)F)c3)C(=O)C2(C)C)ccc1OCCN1CCN(CC(=O)Nc2cccc(NC3CCC(=O)NC3=O)c2)[C@@H](CO)C1 (stereo partly shown) [Example 51] | *** (35%<Y<50%) | 100 to 500 nM
